This note sets out measurements from patent US9655887B2, “Pharmaceutical composition and the use thereof, and application regime of said pharmaceutical composition for on-demand contraception” (BAYER PHARMA AKTIENGESELLSCHAFT, priority 2013, dated 2017).

The assay deals with EP2 subtype of the human PGE2 receptor (hEP2 receptor) (Homo sapiens, UniProt P43116). Nature of the assay: cAMP antagonism test, human prostaglandin E2 (subtype EP2) receptor signal. It counts as cell-based. Summed up: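 Cells (625000 cells/ml, mixed with cAMP-d2) were preincubated 20 min at RT with compound ([…]). They were then stimulated 60 min at RT with a 3× PGE2 solution (1.5 nM) in PBS-IBMX and lysed for 20 min. cAMP was read by HTRF as the 665/620 nm ratio ×10000, with antagonism seen as a rise in FRET signal.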
EP2 subtype of the human PGE2 receptor (hEP2 receptor), sequence (P43116 whole entry): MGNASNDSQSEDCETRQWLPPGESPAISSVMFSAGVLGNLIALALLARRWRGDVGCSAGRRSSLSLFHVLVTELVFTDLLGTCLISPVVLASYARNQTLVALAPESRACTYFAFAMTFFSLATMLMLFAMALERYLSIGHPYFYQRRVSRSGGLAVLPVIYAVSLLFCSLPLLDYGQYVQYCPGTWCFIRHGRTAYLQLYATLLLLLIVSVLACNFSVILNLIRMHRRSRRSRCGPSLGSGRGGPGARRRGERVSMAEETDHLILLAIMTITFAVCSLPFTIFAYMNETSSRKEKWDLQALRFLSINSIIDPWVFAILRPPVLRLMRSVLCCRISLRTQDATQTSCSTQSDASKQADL

`COCCNC(=O)c1ccc2nn(CC3CN(C(=O)c4ccc(Oc5ccc(C(F)(F)F)cn5)cc4)C3)cc2c1C` [Example E117, N-(2-methoxyethyl)-4-methyl-2-{[1-(4-{[5-(trifluoromethyl)pyridin-2-yl]oxy}benzoyl)-azetidin-3-yl]methyl}-2H-indazole-5-carboxamide]: the IC50 (usually the concentration needed to halve the response being measured) was more than 50 nM.

On to `Cc1c(C(=O)NCC(F)(F)F)ccc2nn(CC3CCN(C(=O)c4ccc(SC(F)(F)F)cc4)CC3)cc12` [Example E125, 4-methyl-N-(2,2,2-trifluoroethyl)-2-[(1-{4-[(trifluoromethyl)sulphanyl]benzoyl}-piperidin-4-yl)methyl]-2H-indazole-5-carboxamide], for which the IC50 is more than 50 nM. Regarding `Cc1c(C(=O)NCC(F)(F)F)ccc2nn(CC3CCN(C(=O)c4ccc(Oc5ccc(C(F)(F)F)cn5)cc4)CC3)cc12` [Example E127, 4-methyl-N-(2,2,2-trifluoroethyl)-2-{[1-(4-{[5-(trifluoromethyl)pyridin-2-yl]oxy}-benzoyl)piperidin-4-yl]methyl}-2H-indazole-5-carboxamide], the IC50 is more than 50 nM.

With `Cc1c(C(=O)NCC(F)(F)F)ccc2nn(CC3CCN(C(=O)c4ccc(Oc5ccc(C(F)(F)F)nc5)cc4)CC3)cc12` [Example E128, 4-methyl-N-(2,2,2-trifluoroethyl)-2-{[1-(4-{[6-(trifluoromethyl)pyridin-3-yl]oxy}-benzoyl)piperidin-4-yl]methyl}-2H-indazole-5-carboxamide], the IC50 is more than 50 nM.

Compound `Cc1c(C(=O)NCC(F)(F)F)ccc2nn(CC3CCN(C(=O)c4ccc(Oc5cccc(F)c5)cc4)CC3)cc12` [Example E131, 2-({1-[4-(3-fluorophenoxy)benzoyl]piperidin-4-yl}methyl)-4-methyl-N-(2,2,2-trifluoro-ethyl)-2H-indazole-5-carboxamide] showed an IC50 of more than 50 nM. As to `Cc1c(C(=O)NCC(F)(F)F)ccc2nn(CC3CCN(C(=O)c4ccc(Oc5cccc(C(F)(F)F)c5)cc4)CC3)cc12` [Example E132, 4-methyl-N-(2,2,2-trifluoroethyl)-2-[(1-{4-[3-(trifluoromethyl)phenoxy]benzoyl}-piperidin-4-yl)methyl]-2H-indazole-5-carboxamide], the IC50 is more than 50 nM.

`Cc1c(C(=O)NCC(F)(F)F)ccc2nn(CC3CCN(C(=O)c4ccc(Oc5ccc(F)c(F)c5)cc4)CC3)cc12` [Example E137, 2-({1-[4-(3,4-difluorophenoxy)benzoyl]piperidin-4-yl}methyl)-4-methyl-N-(2,2,2-trifluoroethyl)-2H-indazole-5-carboxamide] had an IC50 of more than 50 nM. `Cc1c(C(=O)NCC(F)(F)F)ccc2nn(CC3CCN(C(=O)c4ccc(-c5ccc(C(F)(F)F)cc5)cc4)CC3)cc12` [Example E138, 4-methyl-N-(2,2,2-trifluoroethyl)-2-[(1-{[4′-(trifluoromethyl)biphenyl-4-yl]carbonyl}-piperidin-4-yl)methyl]-2H-indazole-5-carboxamide]: the IC50 is more than 50 nM. Compound `COc1ccc(-c2ccc(C(=O)N3CCC(Cn4cc5c(C)c(C(=O)NCC(F)(F)F)ccc5n4)CC3)cc2)c(C)c1` [Example E141, 2-({1-[(4′-methoxy-2′-methylbiphenyl-4-yl)carbonyl]piperidin-4-yl}methyl)-4-methyl-N-(2,2,2-trifluoroethyl)-2H-indazole-5-carboxamide] gave an IC50 of more than 50 nM. As to `COc1cc(F)ccc1-c1ccc(C(=O)N2CCC(Cn3cc4c(C)c(C(=O)NCC(F)(F)F)ccc4n3)CC2)cc1` [Example E143, 2-({1-[(4′-fluoro-2′-methoxybiphenyl-4-yl)carbonyl]piperidin-4-yl}methyl)-4-methyl-N-(2,2,2-trifluoroethyl)-2H-indazole-5-carboxamide], the IC50 is more than 50 nM. For `COCCNC(=O)c1ccc2nn(CC3CCN(C(=O)c4ccc(Oc5ccc(C#N)cc5)cc4)CC3)cc2c1C` [Example E153, 2-({1-[4-(4-cyanophenoxy)benzoyl]piperidin-4-yl}methyl)-N-(2-methoxyethyl)-4-methyl-2H-indazole-5-carboxamide], the IC50 was more than 50 nM.

In the case of `COCCNC(=O)c1ccc2nn(CC3CCN(C(=O)c4ccc(Br)c(C)c4)CC3)cc2c1C` [Example E154, 2-{[1-(4-bromo-3-methylbenzoyl)piperidin-4-yl]methyl}-N-(2-methoxyethyl)-4-methyl-2H-indazole-5-carboxamide], the IC50 was more than 50 nM. `COCCNC(=O)c1ccc2nn(CC3CCN(C(=O)c4ccc(C(C)(C)C)cc4)CC3)cc2c1C` [Example E155, 2-{[1-(4-tert-butylbenzoyl)piperidin-4-yl]methyl}-N-(2-methoxyethyl)-4-methyl-2H-indazole-5-carboxamide] gave an IC50 of more than 50 nM.

`COCCNC(=O)c1ccc2nn(CC3CCN(C(=O)c4ccc(C5CCCCC5)cc4)CC3)cc2c1C` [Example E157, 2-{[1-(4-cyclohexylbenzoyl)piperidin-4-yl]methyl}-N-(2-methoxyethyl)-4-methyl-2H-indazole-5-carboxamide] had an IC50 of more than 50 nM. In turn, `COCCNC(=O)c1ccc2nn(CC3CCN(C(=O)c4ccc(Oc5cccnc5)cc4)CC3)cc2c1C` [Example E160, N-(2-methoxyethyl)-4-methyl-2-({1-[4-(pyridin-3-yloxy)benzoyl]piperidin-4-yl}methyl)-2H-indazole-5-carboxamide] displayed an IC50 of more than 50 nM. `COCCNC(=O)c1ccc2nn(CC3CCN(C(=O)c4ccc(Oc5ccccn5)cc4)CC3)cc2c1C` [Example E162, N-(2-methoxyethyl)-4-methyl-2-({1-[4-(pyridin-2-yloxy)benzoyl]piperidin-4-yl}methyl)-2H-indazole-5-carboxamide] showed an IC50 of more than 50 nM. Take `COCCNC(=O)c1ccc2nn(CC3CCN(C(=O)c4ccc(Oc5nccc(C(F)(F)F)n5)cc4)CC3)cc2c1C` [Example E163, N-(2-methoxyethyl)-4-methyl-2-{[1-(4-{[4-(trifluoromethyl)pyrimidin-2-yl]oxy}-benzoyl)piperidin-4-yl]methyl}-2H-indazole-5-carboxamide]: the IC50 was more than 50 nM. Take `COCCNC(=O)c1ccc2nn(CC3CCN(C(=O)c4ccc(Oc5ccc(C(F)(F)F)nc5)cc4)CC3)cc2c1C` [Example E164, N-(2-methoxyethyl)-4-methyl-2-{[1-(4-{[6-(trifluoromethyl)pyridin-3-yl]oxy}benzoyl)-piperidin-4-yl]methyl}-2H-indazole-5-carboxamide]: the IC50 is more than 50 nM.

For `COCCNC(=O)c1ccc2nn(CC3CCN(C(=O)c4ccc(Oc5cccc(C(F)(F)F)n5)cc4)CC3)cc2c1C` [Example E165, N-(2-methoxyethyl)-4-methyl-2-{[1-(4-{[6-(trifluoromethyl)pyridin-2-yl]oxy}benzoyl)-piperidin-4-yl]methyl}-2H-indazole-5-carboxamide], the IC50 was more than 50 nM.

As for `COCCNC(=O)c1ccc2nn(CC3CCN(C(=O)c4ccc(-c5ccc(OC)cc5)cc4)CC3)cc2c1C` [Example E166, 2-({1-[(4′-methoxybiphenyl-4-yl)carbonyl]piperidin-4-yl}methyl)-N-(2-methoxyethyl)-4-methyl-2H-indazole-5-carboxamide], the IC50 is more than 50 nM.

In turn, `COCCNC(=O)c1ccc2nn(CC3CCN(C(=O)c4ccc(Oc5cccc(C(F)(F)F)c5)cc4)CC3)cc2c1C` [Example E168, N-(2-methoxyethyl)-4-methyl-2-[(1-{4-[3-(trifluoromethyl)phenoxy]benzoyl}piperidin-4-yl)methyl]-2H-indazole-5-carboxamide] displayed an IC50 of more than 50 nM.

On to `COCCNC(=O)c1ccc2nn(CC3CCN(C(=O)c4ccc(Oc5ccc(Cl)cn5)cc4)CC3)cc2c1C` [Example E170, 2-[(1-{4-[(5-chloropyridin-2-yl)oxy]benzoyl}piperidin-4-yl)methyl]-N-(2-methoxy-ethyl)-4-methyl-2H-indazole-5-carboxamide], for which the IC50 is more than 50 nM. As to `COCCNC(=O)c1ccc2nn(CC3CCN(C(=O)c4ccc(Oc5ccc(F)cc5F)cc4)CC3)cc2c1C` [Example E171, 2-({1-[4-(2,4-difluorophenoxy)benzoyl]piperidin-4-yl}methyl)-N-(2-methoxyethyl)-4-methyl-2H-indazole-5-carboxamide], the IC50 is more than 50 nM. For the compound `COCCNC(=O)c1ccc2nn(CC3CCN(C(=O)c4ccc(Oc5ccc(F)c(F)c5)cc4)CC3)cc2c1C` [Example E172, 2-({1-[4-(3,4-difluorophenoxy)benzoyl]piperidin-4-yl}methyl)-N-(2-methoxyethyl)-4-methyl-2H-indazole-5-carboxamide], the IC50 was more than 50 nM. In turn, `COCCNC(=O)c1ccc2nn(CC3CCN(C(=O)c4ccc(-c5ccc(C(F)(F)F)cc5)cc4)CC3)cc2c1C` [Example E173, N-(2-methoxyethyl)-4-methyl-2-[(1-{[4′-(trifluoromethyl)biphenyl-4-yl]carbonyl}-piperidin-4-yl)methyl]-2H-indazole-5-carboxamide] yielded an IC50 of more than 50 nM.

For the compound `COCCNC(=O)c1ccc2nn(CC3CCN(C(=O)c4ccc(Oc5cccc(F)c5)cc4)CC3)cc2c1C` [Example E174, 2-({1-[4-(3-fluorophenoxy)benzoyl]piperidin-4-yl}methyl)-N-(2-methoxyethyl)-4-methyl-2H-indazole-5-carboxamide], the IC50 was more than 50 nM. As for `COCCNC(=O)c1ccc2nn(CC3CCN(C(=O)c4ccc(OC(C)C)cc4F)CC3)cc2c1C` [Example E175, 2-{[1-(2-fluoro-4-isopropoxybenzoyl)piperidin-4-yl]methyl}-N-(2-methoxyethyl)-4-methyl-2H-indazole-5-carboxamide], the IC50 is more than 50 nM. In the case of `COCCNC(=O)c1ccc2nn(CC3CCN(C(=O)c4ccc(-c5ccc(C)c(C)c5)cc4F)CC3)cc2c1C` [Example E176, 2-({1-[(3-fluoro-3′,4′-dimethylbiphenyl-4-yl)carbonyl]piperidin-4-yl}methyl)-N-(2-methoxyethyl)-4-methyl-2H-indazole-5-carboxamide], the IC50 is more than 50 nM.
